This passage reports IC50 results from patent US11344549B2 (priority 2017, dated 2022).

The structures appear in SMILES notation.

In one assay the target is JAK1 kinase (Homo sapiens (Human), UniProt P23458). The conditions noted are these: read-out: JAK1 IC50.
Another assay has as its target JAK2 kinase (Homo sapiens (Human), UniProt O60674). The note with it: read-out: JAK2 IC50.

Sequence of JAK2 kinase (O60674 826-1132): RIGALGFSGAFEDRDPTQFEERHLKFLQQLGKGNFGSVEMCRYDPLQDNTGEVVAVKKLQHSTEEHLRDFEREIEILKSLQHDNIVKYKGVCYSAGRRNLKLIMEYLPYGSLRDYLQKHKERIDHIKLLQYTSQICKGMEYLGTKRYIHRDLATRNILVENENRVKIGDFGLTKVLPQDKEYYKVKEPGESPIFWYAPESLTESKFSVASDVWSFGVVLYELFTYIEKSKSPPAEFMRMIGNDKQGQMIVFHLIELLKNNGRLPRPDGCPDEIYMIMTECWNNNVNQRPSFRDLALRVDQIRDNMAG
Sequence of JAK1 kinase (P23458 850-1154): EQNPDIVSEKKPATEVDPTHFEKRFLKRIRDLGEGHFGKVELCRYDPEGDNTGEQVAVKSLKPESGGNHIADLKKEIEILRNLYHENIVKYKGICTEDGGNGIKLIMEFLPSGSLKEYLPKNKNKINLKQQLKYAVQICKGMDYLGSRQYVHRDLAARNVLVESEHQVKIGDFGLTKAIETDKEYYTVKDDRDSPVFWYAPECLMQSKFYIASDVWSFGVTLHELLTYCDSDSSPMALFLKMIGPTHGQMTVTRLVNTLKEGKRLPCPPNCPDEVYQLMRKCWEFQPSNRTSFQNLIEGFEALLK

Take `Cn1cc(Nc2ncc(C(N)=O)c(NCc3ccccc3)n2)cn1` [Example 1, 4-benzylamino-2-((1-methyl-1H-pyrazol-4-yl)amino)pyrimidin-5-carboxamide]: the IC50 on JAK1 kinase came out at 84.7 nM; at JAK2 kinase it was 9.5 nM. The corresponding values for `COc1ccccc1CNc1nc(Nc2cnn(C)c2)ncc1C(N)=O` [Example 2, 4-((2-methoxybenzyl)amino)-2-((1-methyl-1H-pyrazol-4-yl)amino)pyrimidin-5-carboxamide] are 2.53 nM and 2.19 nM.

On to `COc1cccc(F)c1CNc1nc(Nc2cnn(C)c2)ncc1C(N)=O` [Example 3, 4-((2-fluoro-6-methoxybenzyl)amino)-2-((1-methyl-1H-pyrazol-4-yl)amino)pyrimidin-5-carboxamide], for which the IC50 on JAK1 kinase turned out to be 2.81 nM; at JAK2 kinase it was 0.57 nM. For `Cn1cc(Nc2ncc(C(N)=O)c(NCc3c(Cl)cccc3Cl)n2)cn1` [Example 5, 4-((2,6-dichlorobenzyl)amino)-2-((1-methyl-1H-pyrazol-4-yl)amino)pyrimidin-5-carboxamide], at JAK1 kinase, the IC50 was 23.4 nM.

On to `COCCn1cc(Nc2ncc(C(N)=O)c(NCc3c(F)cccc3F)n2)cn1` [Example 6, 4-((2,6-difluorobenzyl)amino)-2-((1-(2-methoxyethyl)-1H-pyrazol-4-yl)amino)pyrimidin-5-carboxamide], for which the results for the half-inhibitory concentration (IC50) at JAK1 kinase and on JAK2 kinase were 29.9 nM and 1.27 nM, respectively. Turning to `COCCn1cc(Nc2ncc(C(N)=O)c(NCc3c(F)cccc3OC)n2)cn1` [Example 7, 4-((2-fluoro-6-methoxybenzyl)amino)-2-((1-(2-methoxyethyl)-1H-pyrazol-4-yl)amino)pyrimidin-5-carboxamide], the IC50 was determined as 9.18 nM at JAK1 kinase and 1.01 nM at JAK2 kinase.

Take `Cn1cc(Nc2ncc(C(N)=O)c(NCCCCCO)n2)cn1` [Example 8, 4-((5-hydroxypentyl)amino)-2-((1-methyl-1H-pyrazol-4-yl)amino)pyrimidin-5-carboxamide]: at JAK1 kinase, the concentration for half-maximal inhibition (IC50) was determined as 80.3 nM. As for `CC(=O)N1CCC(CNc2nc(Nc3cnn(C)c3)ncc2C(N)=O)CC1` [Example 11, 4-(((1-acetylpiperidin-4-yl)methyl)amino)-2-((1-methyl-1H-pyrazol-4-yl)amino)pyrimidin-5-carboxamide], at JAK2 kinase, the concentration for half-maximal inhibition (IC50) amounted to 33.3 nM.

Consider `CC(=O)N1CCC(CCNc2nc(Nc3cnn(C)c3)ncc2C(N)=O)CC1` [Example 12, 4-((2-(1-acetylpiperidin-4-yl)ethyl)amino)-2-((1-methyl-1H-pyrazol-4-yl)amino)pyrimidin-5-carboxamide], for which, on JAK1 kinase, the concentration for half-maximal inhibition (IC50) turned out to be 352 nM. With `CCn1cc(Nc2ncc(C(N)=O)c(NCc3c(F)cccc3F)n2)cn1` [Example 132, 4-[(2,6-difluoro-benzyl)amino]-2-[(1-ethyl-1H-pyrazol-4-yl)amino]pyrimidin-5-carboxamide], the half-inhibitory concentration (IC50) at JAK1 kinase was 14.3 nM; on JAK2 kinase it was 0.51 nM. Take `CC(C)n1cc(Nc2ncc(C(N)=O)c(NCc3c(F)cccc3F)n2)cn1` [Example 133, 4-[(2,6-difluoro-benzyl)amino]-2-[(1-isopropyl-1H-pyrazol-4-yl)amino]pyrimidin-5-carboxamide]: the figures for the IC50 at JAK1 kinase and on JAK2 kinase were 22.8 nM and 0.47 nM, respectively. As to `NC(=O)c1cnc(Nc2cnn(C3CC3)c2)nc1NCc1c(F)cccc1F` [Example 134, 4-[(2,6-difluoro-benzyl)amino]-2-[(1-cyclopropyl-1H-pyrazol-4-yl)amino]pyrimidin-5-carboxamide], the half-maximal inhibitory concentration (IC50) on JAK2 kinase was 1.19 nM. Turning to `NC(=O)c1cnc(Nc2cnn(C3CCC3)c2)nc1NCc1c(F)cccc1F` [Example 135, 4-[(2,6-difluoro-benzyl)amino]-2-[(1-cyclobutyl-1H-pyrazol-4-yl)amino]pyrimidin-5-carboxamide], the half-maximal inhibitory concentration (IC50) on JAK1 kinase was 30.3 nM; at JAK2 kinase, 0.61 nM. Regarding `NC(=O)c1cnc(Nc2cnn(C3CCOCC3)c2)nc1NCc1c(F)cccc1F` [Example 137, 4-[(2,6-difluoro-benzyl)amino]-2-[[1-(tetra hydro-2H-pyran-4-yl)-1H-pyrazol-4-yl)amino]pyrimidin-5-carboxamide], the results for the 50% inhibitory concentration (IC50) at JAK1 kinase and at JAK2 kinase were 16.4 nM and 0.27 nM, respectively.

As for `NC(=O)c1cnc(Nc2cnn(CC3CCCO3)c2)nc1NCc1c(F)cccc1F` (centres unmarked) [Example 138, 4-[(2,6-difluoro-benzyl)amino]-2-[[1-((tetrahydro-furan-2-yl)methyl)-1H-pyrazol-4-yl]amino]pyrimidin-5-carboxamide], the IC50 at JAK1 kinase came out at 88.9 nM; on JAK2 kinase, 1.24 nM. The corresponding values for `CC(C)(O)Cn1cc(Nc2ncc(C(N)=O)c(NCc3c(F)cccc3F)n2)cn1` [Example 145, 4-[(2,6-difluoro-benzyl)amino]-2-[[1-(2-hydroxy-2-methylpropyl)-1H-pyrazol-4-yl]amino]pyrimidin-5-carboxamide] are 20.3 nM and 2.08 nM. Consider `CCn1cc(Nc2ncc(C(N)=O)c(NCc3c(F)cccc3OC)n2)cn1` [Example 150, 4-[(2-fluoro-6-methoxybenzyl)amino]-2-[(1-ethyl-1H-pyrazol-4-yl)amino]pyrimidin-5-carboxamide], for which, at JAK1 kinase, the half-inhibitory concentration (IC50) came out at 3.22 nM. Consider `COc1cccc(F)c1CNc1nc(Nc2cnn(C(C)C)c2)ncc1C(N)=O` [Example 151, 4-[(2-fluoro-6-methoxybenzyl)amino]-2-[(1-isopropyl-1H-pyrazol-4-yl)amino]pyrimidin-5-carboxamide], for which the IC50 on JAK1 kinase amounted to 2.77 nM; on JAK2 kinase, 0.61 nM. Turning to `COc1ccccc1CNc1nc(Nc2cnn(CCO)c2)ncc1C(N)=O` [Example 172, 4-[(2-methoxybenzyl)amino]-2-[[1-(2-hydroxyethyl)-1H-pyrazol-4-yl]amino]pyrimidin-5-carboxamide], the half-maximal inhibitory concentration (IC50) came to 15.6 nM on JAK1 kinase and 0.95 nM at JAK2 kinase. The corresponding values for `Cc1cccc(C)c1CNc1nc(Nc2cnn(CCO)c2)ncc1C(N)=O` [Example 174, 4-[(2,6-dimethyl-benzyl)amino]-2-[[1-(2-hydroxy-ethyl)-1H-pyrazol-4-yl]amino]pyrimidin-5-carboxamide] are 54.7 nM and 3.06 nM. Consider `C=CCCNc1nc(Nc2cnn(C(C)(C)C)c2)ncc1C(N)=O` [Example 228, 4-(but-3-en-1-ylamino)-2-((1-(tert-butyl)-1H-pyrazol-4-yl)amino)pyrimidin-5-carboxamide], for which the IC50 on JAK2 kinase turned out to be 13.9 nM. The same measure, in the same setting: with `C=C(C)CNc1nc(Nc2cnn(C(C)(C)C)c2)ncc1C(N)=O` [Example 229, 2-((1-tert-butyl-1H-pyrazol-4-yl)amino)-4-((2-methylallyl)amino)pyrimidin-5-carboxamide] the figure was 2.8 nM. Turning to `CC(C)=CCNc1nc(Nc2cnn(C(C)(C)C)c2)ncc1C(N)=O` [Example 230, 2-((1-(tert-butyl)-1H-pyrazol-4-yl)amino)-4-((3-methylbut-2-en-1-yl)amino)pyrimidin-5-carboxamide], the IC50 at JAK1 kinase amounted to 28.1 nM; at JAK2 kinase, 1.7 nM. The corresponding values for `C=C(C)CNc1nc(Nc2cnn(C3CCOCC3)c2)ncc1C(N)=O` [Example 232, 4-((2-methylallyl)amino)-2-((1-(tetrahydro-2H-pyran-4-yl)-1H-pyrazol-4-yl)amino)pyrimidin-5-carboxamide] are 34.4 nM and 2 nM. The corresponding values for `CC(C)=CCNc1nc(Nc2cnn(C3CCOCC3)c2)ncc1C(N)=O` [Example 233, 4-((3-methylbut-2-en-1-yl)amino)-2-((1-(tetrahydro-2H-pyran-4-yl)-1H-pyrazol-4-yl)amino)pyrimidin-5-carboxamide] are 6.5 nM and 0.9 nM. The corresponding values for `C=CCCNc1nc(Nc2cnn(C3CCOCC3)c2)ncc1C(N)=O` [Example 234, 4-(but-3-en-1-ylamino)-2-((1-(tetrahydro-2H-pyran-4-yl)-1H-pyrazol-4-yl)amino)pyrimidin-5-carboxamide] are 31 nM and 1.2 nM.

As to `CC(C)(C)n1cc(Nc2ncc(C(N)=O)c(NCC3CC=CC3)n2)cn1` [Example 236, 2-((1-(tert-butyl)-1H-pyrazol-4-yl)amino)-4-((cyclopent-3-en-1-ylmethyl)amino)pyrimidin-5-carboxamide], the IC50 was 7.6 nM on JAK1 kinase and 2.6 nM at JAK2 kinase. `C=CCNc1nc(Nc2cnn(C(C)(C)C)c2)ncc1C(N)=O` [Example 238, 4-(allylamino)-2-((1-(tert-butyl)-1H-pyrazol-4-yl)amino)pyrimidin-5-carboxamide]: the results for the IC50 at JAK1 kinase and on JAK2 kinase were 11.5 nM and 3.6 nM, respectively. The corresponding values for `C=C(C)CCNc1nc(Nc2cnn(C(C)(C)C)c2)ncc1C(N)=O` [Example 242, 2-((1-tert-butyl-1H-pyrazol-4-yl)amino)-4-((3-methylbut-3-en-1-yl)amino)pyrimidin-5-carboxamide] are 8 nM and 1.5 nM. The corresponding values for `C=C(C)CCCNc1nc(Nc2cnn(C(C)(C)C)c2)ncc1C(N)=O` [Example 244, 2-((1-tert-butyl-1H-pyrazol-4-yl)amino)-4-((4-methylpent-4-en-1-yl)amino)pyrimidin-5-carboxamide] are 10.8 nM and 3 nM.

Turning to `CC(C)=CCCCNc1nc(Nc2cnn(C(C)(C)C)c2)ncc1C(N)=O` [Example 245, 2-((1-tert-butyl-1H-pyrazol-4-yl)amino)-4-((5-methylhex-4-en-1-yl)amino)pyrimidin-5-carboxamide], the results for the half-maximal inhibitory concentration (IC50) on JAK1 kinase and at JAK2 kinase were 40.8 nM and 16.9 nM, respectively.

As for `CC(C)C/C=C/CNc1nc(Nc2cnn(C(C)(C)C)c2)ncc1C(N)=O` [Example 246, (E)-2-((1-tert-butyl-1H-pyrazol-4-yl)amino)-4-((5-methylhex-2-en-1-yl)amino)pyrimidin-5-carboxamide], the IC50 stood at 345 nM at JAK1 kinase and 42.5 nM at JAK2 kinase.

For orientation: IC50 means the concentration needed to halve the response being measured.
